Reference: patent publication US20100292266A1, “Oxazolyl Piperidine Modulators of Fatty Acid Amide Hydrolase” (priority 2006, published 2010)

Key:
[1] = model of multiple sclerosis, Baker 2001; cited from earlier work
Rat FAAH = target: T1, Rat FAAH (Rattus norvegicus, UniProt P97612); test: Assay Method 2: FAAH assay, 3H-anandamide hydrolysis in cell homogenate; assay type: biochemical; details: transfected SK-N-MC cell homogenate, 80 nM 3H-AEA, 1 h rt, > = solubility limit or highest concentration tested
T1 construct: expressed in transfected cells
T1 sequence (P97612 1-579): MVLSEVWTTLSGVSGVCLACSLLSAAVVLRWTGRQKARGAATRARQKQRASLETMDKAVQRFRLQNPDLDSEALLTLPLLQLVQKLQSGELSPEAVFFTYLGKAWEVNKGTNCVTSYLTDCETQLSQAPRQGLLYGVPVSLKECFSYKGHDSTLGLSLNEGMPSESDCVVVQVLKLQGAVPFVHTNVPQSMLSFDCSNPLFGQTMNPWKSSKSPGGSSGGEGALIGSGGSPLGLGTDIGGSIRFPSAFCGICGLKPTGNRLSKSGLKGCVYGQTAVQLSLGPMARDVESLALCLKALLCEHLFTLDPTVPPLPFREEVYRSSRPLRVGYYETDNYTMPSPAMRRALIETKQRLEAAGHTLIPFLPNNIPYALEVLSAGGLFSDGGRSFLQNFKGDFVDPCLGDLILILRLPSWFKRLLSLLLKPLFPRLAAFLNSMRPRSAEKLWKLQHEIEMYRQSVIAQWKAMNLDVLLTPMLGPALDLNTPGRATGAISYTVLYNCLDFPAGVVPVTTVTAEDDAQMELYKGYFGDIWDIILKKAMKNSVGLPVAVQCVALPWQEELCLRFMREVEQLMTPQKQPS
In short: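 Homogenate of SK-N-MC cells stably transfected with rat FAAH cDNA (G418-selected clones) incubated with compound and 80 nM final [3H]-anandamide for 1 h. Released [3H]-ethanolamine separated on activated charcoal filters by centrifugation and counted by scintillation. ">" values mark solubility limit or top concentration tested.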

FAAH [2] = target: T2, FAAH (Homo sapiens, UniProt O00519); test: Assay Method 1: FAAH assay, 3H-anandamide hydrolysis in cell homogenate; assay type: biochemical; design: expressed in transfected cells; details: T84 or transfected SK-N-MC cell homogenate, 80 nM 3H-AEA, 1 h rt, > = solubility limit or highest concentration tested
T2 sequence (O00519 1-579): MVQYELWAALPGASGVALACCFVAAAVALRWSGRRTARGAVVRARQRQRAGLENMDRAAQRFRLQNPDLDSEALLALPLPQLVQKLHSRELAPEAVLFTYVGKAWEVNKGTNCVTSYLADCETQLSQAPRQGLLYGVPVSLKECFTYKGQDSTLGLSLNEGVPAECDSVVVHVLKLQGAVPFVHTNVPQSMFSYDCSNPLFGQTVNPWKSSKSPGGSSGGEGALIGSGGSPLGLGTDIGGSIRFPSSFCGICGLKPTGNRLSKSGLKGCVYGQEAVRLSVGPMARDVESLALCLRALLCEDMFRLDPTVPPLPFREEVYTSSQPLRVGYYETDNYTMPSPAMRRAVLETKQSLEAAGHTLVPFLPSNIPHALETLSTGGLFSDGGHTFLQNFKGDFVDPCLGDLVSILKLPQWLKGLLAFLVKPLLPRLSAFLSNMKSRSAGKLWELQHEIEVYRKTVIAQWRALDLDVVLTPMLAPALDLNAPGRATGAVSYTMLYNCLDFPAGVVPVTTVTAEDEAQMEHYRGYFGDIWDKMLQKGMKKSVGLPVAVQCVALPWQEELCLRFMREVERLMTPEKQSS
In short: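 Homogenate of SK-N-MC cells stably transfected with human FAAH, incubated with compound and 80 nM final ³H-anandamide for 1 h at rt. Released ³H-ethanolamine separated from substrate on activated charcoal and counted by scintillation. ">" values reflect solubility limit or top concentration tested.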

[3] = cited from earlier work
FAAH [4] = target: T2, FAAH; details: WO 04/033652; cited from earlier work
[5] = rats; WO 04/033652; cited from earlier work
[6] = rats; Kathuria 2003; cited from earlier work
[7] = Kathuria 2003; cited from earlier work
[8] = rats; WO 02/087569; cited from earlier work
[9] = rats; WO 02/087569; cited from earlier work; remark: listed apart in the source

SMILES	IC50 (Rat FAAH)	IC50 (FAAH [2])	further results
CCCCCCCCCCCCCCCCS(=O)(=O)F [AM374]	–	–	spasticity in CREAE mice [1]: significantly reduce spasticity
O=C(CCCCCCc1ccccc1)c1ncc(-c2ccccn2)o1 [OL-135]	–	–	analgesic activity in hot plate test of thermal nociception ([3]; rats, WO 04/033652): analgesic activity; inhibition of FAAH (FAAH [4]): potent inhibitor of FAAH; analgesic activity in tail emersion test of thermal nociception [5]: analgesic activity
NC(=O)c1cccc(-c2cccc(OC(=O)NC3CCCCC3)c2)c1 [URB-597]	–	–	efficacy in zero plus maze model of anxiety [6]: efficacy; analgesic efficacy in rat hot plate test ([3]; rat, Kathuria 2003): analgesic efficacy; analgesic efficacy in rat formalin test [7]: analgesic efficacy
O=C(c1ncco1)C1CCN(Cc2ccc3cccnc3n2)CC1 [Example 41, (1-[1,8]Naphthyridin-2-ylmethyl-piperidin-4-yl)-oxazol-2-yl-methanone]	1750 nM	309 nM	–
O=C(c1ncco1)C1CCN(Cc2ccccn2)CC1 [Example 60, Oxazol-2-yl-(1-pyridin-2-ylmethyl-piperidin-4-yl)-methanone]	> 10000 nM	1300 nM	–
O=C(c1ncco1)C1CCN(Cc2ccc3cc[nH]c3c2)CC1 [Example 45, [1-(1H-Indol-6-ylmethyl)-piperidin-4-yl]-oxazol-2-yl-methanone]	1600 nM	212 nM	–
Cc1nc(-c2ccccc2)c(-c2ccccc2)n1CCCCCCNC(=O)Oc1ccccc1F [BMS-1]	–	–	analgesic effect in Chung spinal nerve ligation model of neuropathic pain [8]: analgesic effect; analgesic effect in Hargraves test of acute thermal nociception [9]: analgesic effect

The next lines start with results.

IC50 (Rat FAAH)	IC50 (FAAH [2])	SMILES	further results
385 nM	94 nM	Cn1ccc2ccc(CN3CCC(C(=O)c4ncco4)CC3)cc21 [Example 40, [1-(1-Methyl-1H-indol-6-ylmethyl)-piperidin-4-yl]-oxazol-2-yl-methanone]	–
132 nM	28 nM	O=C(c1ncco1)C1CCN(Cc2cccc(Oc3ccccc3)c2)CC1 [Example 56, Oxazol-2-yl-[1-(3-phenoxy-benzyl)-piperidin-4-yl]-methanone]	–
40 nM	12 nM	O=C(c1ncco1)C1CCN(Cc2ccc3cccc(O)c3n2)CC1 [Example 79, [1-(8-Hydroxy-quinolin-2-ylmethyl)-piperidin-4-yl]-oxazol-2-yl-methanone]	–
170 nM	110 nM	CC(C)c1ccc(CN2CCC(C(=O)c3ncco3)CC2)cc1 [Example 86, [1-(4-Isopropyl-benzyl)-piperidin-4-yl]-oxazol-2-yl-methanone]	–
970 nM	250 nM	Cc1cccc(CN2CCC(C(=O)c3ncco3)CC2)c1 [Example 65, [1-(3-Methyl-benzyl)-piperidin-4-yl]-oxazol-2-yl-methanone]	–
15 nM	10 nM	O=C(c1ncco1)C1CCN(Cc2ccc(C(F)(F)F)cc2)CC1 [Example 19]	–
40 nM	25 nM	O=C(c1ncco1)C1CCN(Cc2ccc(OC(F)(F)F)cc2)CC1 [Example 36, Oxazol-2-yl-[1-(4-trifluoromethoxy-benzyl)-piperidin-4-yl]-methanone]	–
40 nM	19 nM	O=C(c1ncco1)C1CCN(Cc2ccc(Cl)cc2)CC1 [Example 35, [1-(4-Chloro-benzyl)-piperidin-4-yl]-oxazol-2-yl-methanone]	–
